These results are taken from patent US20220267310A1, “QUINAZOLINE AND CINNOLINE DERIVATIVES AS DNA-PK INHIBITOR” (MEDSHINE DISCOVERY INC., priority 2019, published 2022).

The data set in a line: Pharmacokinetic evaluation in mice, IV and PO. The class given is in vivo, Balb/c female mice. Conditions: for bioavailability: plasma; for bioavailability / Bioavailability (%): mouse; for Vd: read-out: Vdss. The protocol:
The tested compound was mixed with 10% DMSO/50% PEG400/40% water, vortexized and ultrasonic to prepare 0.2 mg/mL or 0.4 mg/ml, approximately clarified solution, which was filtered by a microporous membrane and then standby. Balb/c female mice of 18-20 g were selected and given the candidate compound solution intravenously at a dose of 1 or 2 mg/kg. The tested compound was mixed with 10% DMSO/50% PEG400/40% water, vortexized and ultrasonic to prepare 0.2 mg/mL or 1 mg/mL approximately clarified solution, which was filtered by a microporous membrane and then standby. Balb/c female mice of 18 to 20 g were selected and given orally the candidate compound solution at a dose of 2 or 10 mg/kg. Whole blood was collected for a certain period of time, and plasma was prepared. Drug concentration was analyzed by LC-MS/MS method, and pharmacokinetic parameters were calculated by Phoenix WinNonlin software (US Pharsight company).
C0: instantaneous concentration required after intravenous injection; Cmax: the highest blood concentration after administration; Tmax: time required to reach peak concentration after administration; T1/2: the time required for blood drug concentration to decrease by half; Vdss: apparent volume of distribution, which refers to the ratio constant of drug dosage to blood concentration when a drug reaches dynamic equilibrium in vivo. Cl: clearance rate, referring to drug apparent distribution volume number removed from the body per unit time; Tlast: time of last detection point: AUC0-last: an area under a drug duration curve, referring to an area surrounded by the blood drug concentration curve on the time axis; Bioavailability: a measure of the rate and extent of drug absorption into the blood circulation, which was an important index to evaluate drug absorption degree.

The mark [1] stands for this setting: female, Balb/c, IV(1 mg/kg), mouse plasma.
[2] abbreviates: female, Balb/c, IV(2 mg/kg), mouse plasma.
Setting [3] is: female, Balb/c, PO(2 mg/kg), mouse plasma.
[4] abbreviates: female, Balb/c, PO(10 mg/kg), mouse plasma.

Like-named read-outs stand apart in the source and are kept apart here.

In general, bioavailability refers to the share of a dose that reaches the circulation, judged against a reference dose that is usually intravenous. The low end stands for little systemic uptake, the high end for much systemic uptake. The term AUC(0-t) denotes the area under the concentration-time curve up to a stated or last time point. Low values mean low exposure, high ones high exposure. In general, half-life refers to how long it takes for the measured level to halve. High values mean slow decline, low ones rapid decline. As usually defined, the Cmax is the maximum level reached in the sampled fluid or tissue. A word on the Tmax: it is the time at which the peak concentration occurs. For the molecule `COc1ccc([C@@H](O)c2cc(-c3nncc4cc(N5CCOCC5)ccc34)c(F)cc2Cl)nn1` [Embodiment M3814, reference compound], the “Tlast” value (IV(1 mg/kg), mouse plasma) was found to be 6.00 h; the “Tlast” value (IV(2 mg/kg), mouse plasma) stood at 4.00 h; the “Tlast” value (PO(2 mg/kg), mouse plasma) came to 8.00 h; the “Tlast” value (PO(10 mg/kg), mouse plasma) was determined as 8.00 h. The same molecule showed a bioavailability (female, Balb/c, PO(2 mg/kg)) of 25.8% and a bioavailability (female, Balb/c, PO(10 mg/kg)) of 54%. This molecule also had an AUC(0-t) under setting [1] of 1.33 µM·h, an AUC(0-t) under setting [2] of 1.41 µM·h, an AUC(0-t) under setting [3] of 0.688 µM·h and an AUC(0-t) under setting [4] of 3.73 µM·h. For the same molecule, the C0 reads like this: under setting [1], 1970 nM; under setting [2], 2160 nM. The clearance came to 25.9 mL/min/kg under setting [1] and 49 mL/min/kg under setting [2]. In addition, the half-life under setting [1] is 42.4 min, the half-life under setting [2] was 28.7 min, the half-life under setting [3] is 128 min and the half-life under setting [4] is 85.8 min. Moreover, the Vd reads like this: under setting [1], 1.34 L/kg; under setting [2], 1.9 L/kg. Further, the Cmax runs as follows: under setting [3], 580 nM; under setting [4], 2060 nM. The Tmax runs as follows: (female, Balb/c, PO(2 mg/kg), mouse plasma, read-out: Tmax) 15 min; (female, Balb/c, PO(10 mg/kg), mouse plasma, read-out: Tmax) 30 min.

`COc1ccc(C(O)c2cc(-c3cnnc4c(F)c(N5CCOCC5)cc(F)c34)c(F)cc2Cl)nn1` (single isomer, unassigned) [Embodiment 19]: under “IV(1 mg/kg), mouse plasma”, the “AUC0-last” value was determined as 1.569 µM·h, the C0 turned out to be 1290 nM, the “Cl” value is listed as 20.2 mL/min/kg and the “T1/2” value is 78.6 min. Also, under “IV(1 mg/kg), mouse plasma”, the “Tlast” value is recorded as 8.00 h and the “Vdss” value is listed as 2.13 L/kg. In addition, where the note is “IV(2 mg/kg), mouse plasma”, the “AUC0-last” value was determined as 3.832 µM·h, the C0 was found to be 2250 nM and the “Tlast” value was 8.00 h. Moreover, the “Bioavailability (%)” value (PO(2 mg/kg)) is on record as 47.9%. Also, where the note is “PO(2 mg/kg), mouse plasma”, the “AUC0-last” value was 1.503 µM·h, the peak concentration (Cmax) worked out at 448 nM, the “T1/2” value worked out at 488 min and the “Tlast” value worked out at 8.00 h. Moreover, under “PO(2 mg/kg), mouse plasma”, the “Tmax” value was determined as 15 min. Also, under “PO(10 mg/kg)”, the “Bioavailability (%)” value is listed as 70.5%. Besides, under “PO(10 mg/kg), mouse plasma”, the “AUC0-last” value was 13.737 µM·h, the Cmax is 2740 nM, the “T1/2” value amounted to 107 min and the “Tlast” value is listed as 12.0 h. Also, the “Tmax” value (PO(10 mg/kg), mouse plasma) stood at 60 min.
